Experimental data published in paper PMC11062899, “De novo development of small cyclic peptides that are orally bioavailable” (Nature Chemical Biology, 2023).
Several values for one entry are separate records, joined by “and”; a condition that tells them apart may be missing. Identical values can stand only once. Like-named read-outs stand apart in the source and are kept apart here.

Columns and labels:
[1] = molecular target: T1, porcine pepsin (Sus scrofa, UniProt P00791); experiment: Peptide stability in simulated gastric fluid (SGF); format: in vitro ADME; design: remaining at 8 h: dose or concentration left out as unconfirmed; conditions: for remaining at 8 h: pH 1.2
T1 construct: 0.32 g of porcine pepsin (Sigma-Aldrich, P7125) was dissolved under gentle agitation; purchased Sigma-Aldrich P7125
How it was run: (§1)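 Peptide from a 1 mM DMSO stock was added to fluid pre-warmed at 37 °C. SGF was pH 1.2 NaCl with porcine pepsin (0.32 g per 100 ml), and SIF was pH 6.8 potassium phosphate with porcine pancreatin (1 g per 100 ml). Supernatant peptide was quantified by LC–MS, with residual expressed as T1/T0.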

[2] = system: porcine pancreatin; experiment: Peptide stability in simulated intestinal fluid (SIF); format: in vitro ADME; conditions: after 8 h vs 0 h (TIC); average of R1-R3
How it was run: as §1

[3] = as above; format: in vitro ADME, porcine; conditions: simulated gi fluid; 8 h, 37 °C, pH 6.8; read-out: Proteolytic stability: SIF (8 h) % remaining
How it was run: as §1

[4] = molecular target: T2, rat α-thrombin (Rattus norvegicus, UniProt P18292); experiment: Protease inhibition, Ki for rat α-thrombin (fluorogenic substrate Z-Gly-Gly-Arg-AMC); format: biochemical; conditions: for Slope normalized to DMSO (proteolytic substrate cleavage over time) / Rat alpha thrombin inhibition, slope normalized to DMSO: replicates R1-R3
T2 construct: rat α-thrombin (Molecular Innovations) were used at final concentrations of 2 nM and 3 nM; purchased Molecular Innovations
How it was run: (§2)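 Inhibition was measured as AMC fluorescence from 50 μM substrate, monitored for 30 min at 25 °C, relative to a peptide-free control. Human and rat enzymes were present at 2 nM and 3 nM final, respectively, in 50 mM Tris-HCl pH 7.4, 150 mM NaCl, 10 mM MgCl2, 1 mM CaCl2. Ki derives from fitted IC50 via Cheng–Prusoff.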

[5] = molecular target: human α-thrombin (Homo sapiens, UniProt P00734); experiment: Protease inhibition, Ki for human α-thrombin (fluorogenic substrate Z-Gly-Gly-Arg-AMC); format: biochemical; conditions: for Human alpha thrombin inhibition, slope normalized to DMSO: replicates R1-R3
How it was run: as §2

[6] = Passive artificial membrane permeability (PAMPA)
[7] = peptide 1.33E+02 uM, slope of proteolytic substrate cleavage over time

T1 sequence (P00791 60-385): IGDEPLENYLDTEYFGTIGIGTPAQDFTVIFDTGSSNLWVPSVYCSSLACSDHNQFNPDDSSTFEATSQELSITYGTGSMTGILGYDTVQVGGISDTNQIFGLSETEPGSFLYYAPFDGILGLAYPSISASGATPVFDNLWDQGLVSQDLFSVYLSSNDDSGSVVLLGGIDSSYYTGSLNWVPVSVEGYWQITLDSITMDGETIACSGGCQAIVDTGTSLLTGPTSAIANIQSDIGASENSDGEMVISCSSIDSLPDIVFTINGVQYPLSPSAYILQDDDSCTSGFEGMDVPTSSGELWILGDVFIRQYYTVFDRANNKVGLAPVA

SGF stability, Residual peptide ([1]; after 8 h vs 0 h (TIC), single replicates R1-R3): 36.24 and 43.40 and 29.72
remaining at 8 h ([1]; pig, simulated gastric fluid (SGF, USP) with porcine pepsin, after 8 h vs 0 h (TIC), average of R1-R3, read-out: SGF stability, Residual peptide Average): 36.5%
remaining at 8 h ([1]; simulated gi fluid, 8 h, 37 °C, read-out: Proteolytic stability: SGF (8 h) % remaining): 36 ± 7%
SIF stability, Residual peptide Average [2]: 14.00
remaining at 8 h [3]: 14 ± 4.4%
Ki ([4]; average of R1-R3, read-out: Ki Average): 36.8 nM
Slope normalized to DMSO (proteolytic substrate cleavage over time) ([4]; peptide 1.02E-03 uM): 94.9 and 90.5 and 126.3
Slope normalized to DMSO (proteolytic substrate cleavage over time) ([4]; peptide 1.04E+00 uM): 9.4 and 10.0 and 7.6
Slope normalized to DMSO (proteolytic substrate cleavage over time) ([4]; peptide 1.27E-04 uM): 95.1 and 96.6 and 96.3
Slope normalized to DMSO (proteolytic substrate cleavage over time) ([4]; peptide 1.30E-01 uM): 36.1 and 35.6 and 32.6
Rat alpha thrombin inhibition, slope normalized to DMSO [4, 7]: 7.9 and 5.3 and 6.2
Slope normalized to DMSO (proteolytic substrate cleavage over time) ([4]; peptide 1.63E-02 uM): 78.2 and 76.9 and 78.3
Rat alpha thrombin inhibition, slope normalized to DMSO ([4]; peptide 1.67E+01 uM): 4.9 and 5.1 and 4.0
Slope normalized to DMSO (proteolytic substrate cleavage over time) ([4]; peptide 2.03E-03 uM): 89.6 and 92.6 and 90.5
Rat alpha thrombin inhibition, slope normalized to DMSO ([4]; peptide 2.08E+00 uM): 5.8 and 4.5 and 4.3
Slope normalized to DMSO (proteolytic substrate cleavage over time) ([4]; peptide 2.54E-04 uM): 95.9 and 93.5 and 98.7
Slope normalized to DMSO (proteolytic substrate cleavage over time) ([4]; peptide 2.60E-01 uM): 24.9 and 24.5 and 24.7
Slope normalized to DMSO (proteolytic substrate cleavage over time) ([4]; peptide 3.18E-05 uM): 97.8 and 96.7 and 99.3
Slope normalized to DMSO (proteolytic substrate cleavage over time) ([4]; peptide 3.26E-02 uM): 68.3 and 65.8 and 66.5
Rat alpha thrombin inhibition, slope normalized to DMSO ([4]; peptide 3.33E+01 uM): 4.3 and 4.0 and 4.9
Slope normalized to DMSO (proteolytic substrate cleavage over time) ([4]; peptide 4.07E-03 uM): 90.1 and 88.8 and 91.4
Rat alpha thrombin inhibition, slope normalized to DMSO ([4]; peptide 4.17E+00 uM): 4.1 and 2.6 and 2.8
Slope normalized to DMSO (proteolytic substrate cleavage over time) ([4]; peptide 5.09E-04 uM): 95.0 and 94.4 and 95.5
Slope normalized to DMSO (proteolytic substrate cleavage over time) ([4]; peptide 5.21E-01 uM): 15.5 and 14.5
Slope normalized to DMSO (proteolytic substrate cleavage over time) ([4]; peptide 6.36E-05 uM): 97.1 and 98.7 and 90.6
Slope normalized to DMSO (proteolytic substrate cleavage over time) ([4]; peptide 6.51E-02 uM): 52.7 and 50.7 and 50.5
Rat alpha thrombin inhibition, slope normalized to DMSO ([4]; peptide 6.67E+01 uM): 3.6 and 3.0 and 1.8
Slope normalized to DMSO (proteolytic substrate cleavage over time) ([4]; peptide 8.14E-03 uM): 84.4
Rat alpha thrombin inhibition, slope normalized to DMSO ([4]; peptide 8.33E+00 uM): 4.9 (2×) and 4.3
IC50 ([4]; single replicates R1-R3, read-out: IC50): 71.7 nM and 68.3 nM and 59.7 nM
Ki ([4]; single replicates R1-R3, read-out: Ki): 39.7 nM and 37.8 nM and 33 nM (2×)
IC50 ([5]; human alpha thrombin, individual replicates R1-R3, read-out: IC50): 122 nM and 107 nM and 104 nM
Ki ([5]; human alpha thrombin, individual replicates R1-R3, read-out: Ki): 94.1 nM and 82.8 nM and 80.4 nM
Ki ([5]; human alpha thrombin, average of R1-R3, read-out: Ki Average): 85.8 nM
Human alpha thrombin inhibition, slope normalized to DMSO ([5]; peptide 1.02E-03 uM): 92.7 and 96.3 and 98.1
Human alpha thrombin inhibition, slope normalized to DMSO ([5]; peptide 1.04E+00 uM): 14.1 and 15.4 and 19.5
Human alpha thrombin inhibition, slope normalized to DMSO ([5]; peptide 1.27E-04 uM): 98.4 and 100.1 and 101.4
Human alpha thrombin inhibition, slope normalized to DMSO ([5]; peptide 1.30E-01 uM): 51.2 and 52.1 and 48.8
Human alpha thrombin inhibition, slope normalized to DMSO [5, 7]: 8.1 and 8.7 and 9.0
Human alpha thrombin inhibition, slope normalized to DMSO ([5]; peptide 1.63E-02 uM): 87.3 and 78.8 and 85.1
Human alpha thrombin inhibition, slope normalized to DMSO ([5]; peptide 1.67E+01 uM): 9.8 and 9.6 and 8.8
Human alpha thrombin inhibition, slope normalized to DMSO ([5]; peptide 2.03E-03 uM): 100.0 and 90.9 and 98.1
Human alpha thrombin inhibition, slope normalized to DMSO ([5]; peptide 2.08E+00 uM): 10.6 and 11.3 and 7.9
Human alpha thrombin inhibition, slope normalized to DMSO ([5]; peptide 2.54E-04 uM): 99.0 and 98.6 and 98.3
Human alpha thrombin inhibition, slope normalized to DMSO ([5]; peptide 2.60E-01 uM): 38.3 and 36.0 and 36.6
Human alpha thrombin inhibition, slope normalized to DMSO ([5]; peptide 3.18E-05 uM): 100.0 and 103.6 and 101.9
Human alpha thrombin inhibition, slope normalized to DMSO ([5]; peptide 3.26E-02 uM): 77.4 and 76.3
Human alpha thrombin inhibition, slope normalized to DMSO ([5]; peptide 3.33E+01 uM): 8.8 and 8.2 and 6.8
Human alpha thrombin inhibition, slope normalized to DMSO ([5]; peptide 4.07E-03 uM): 95.6 and 92.2 and 94.3
Human alpha thrombin inhibition, slope normalized to DMSO ([5]; peptide 4.17E+00 uM): -2.0 and 6.9 and 2.0
Human alpha thrombin inhibition, slope normalized to DMSO ([5]; peptide 5.09E-04 uM): 98.9 and 97.6 and 107.7
Human alpha thrombin inhibition, slope normalized to DMSO ([5]; peptide 5.21E-01 uM): 24.9 and 24.6 and 25.0
Human alpha thrombin inhibition, slope normalized to DMSO ([5]; peptide 6.36E-05 uM): 101.3 and 99.0 and 104.0
Human alpha thrombin inhibition, slope normalized to DMSO ([5]; peptide 6.51E-02 uM): 65.9 and 65.1 and 64.6
Human alpha thrombin inhibition, slope normalized to DMSO ([5]; peptide 6.67E+01 uM): 8.2 and 10.4 and 4.8
Human alpha thrombin inhibition, slope normalized to DMSO ([5]; peptide 8.14E-03 uM): 92.7 and 91.1 and 94.4
Human alpha thrombin inhibition, slope normalized to DMSO ([5]; peptide 8.33E+00 uM): 14.8 and 11.1
Ki ([5]; purified peptide, mean and s.d. of three measurements, read-out: Ki human α-thrombin): 82 ± 10 nM
Ki ([5]; single replicates R1-R3, read-out: Ki (nM), human alpha thrombin inhibition): 94.1 nM and 82.8 nM and 80.4 nM
PAMPA permeability: % permeability ([6]; 50 μM, 12–18 h, acceptor concentration relative to equilibrium): 1.23 ± 0.72%
Papp at 50 μM ([6]; PAMPA, pH 7.4): 0.0708 ×10⁻⁶ cm/s
Permeability% Average ([6]; PAMPA, average of R1-R3): 1.2%
Permeability% R1 ([6]; PAMPA, replicate R1, TIC of top well sample relative to sample at theoretical equilibrium): 0.47%
Permeability% R3 ([6]; PAMPA, replicate R3, TIC of top well sample relative to sample at theoretical equilibrium): 1.91%
Structure (SMILES): O=C1C[C@H]2CCCN2C(=O)[C@H](Cc2ccccc2)NC(=O)[C@@H](NC(=O)c2ccc(Cl)s2)CSCCS(=O)(=O)CCSCCN1 [peptide 11]
